“And” between values parts separate entries of the source, which are not always exact repeats. Equal entries are not always repeated.

3 compounds from patent US20260248087A1, “GENERATING DOUBLED HAPLOID PLANTS” (Syngenta Crop Protection AG, priority 2023, published 2026) can be followed below.

In one data set the test system is corn embryos. In words: Uptake of metcamifen and metabolism of colchicine in corn embryos (LCMS). The class given is in vitro ADME. The note with it: 500 ppm colchicine, corn embryos. The procedure: An experiment was completed to evaluate the uptake of metcamifen into corn embryos, whether colchicine is metabolized in the embryos, and if metcamifen increased the rate of colchicine metabolism. Corn embryos were co-treated with 500 ppm colchicine in the presence of 200 ppm, 1000 ppm or no metcamifen (control) for 24 or 48 hours and frozen. One biological replicate was represented by five embryos, and three biological replicates were used per co-treatment.
Prior to extraction, embryos were washed for 20 seconds in 80:20 (v/v) acetonitrile:H2O to remove any colchicine and metcamifen on the surface. Each replicate was extracted in 0.5 ml methanol using a fast prep maceration method. Then, samples were diluted 1 in 10 prior to analysis by Liquid Chromatography Mass Spectrometry (LCMS). Samples were analyzed alongside matrix matched standards of colchicine and metcamifen. Metabolite investigations were performed to identify any metabolites.

The next data set concerns isolated embryos. As to the kind of experiment: Potting and transplant rate, co-treatment with benoxacor or dichlormid during colchicine treatment. The class given is in vivo, maize. From the text:
As used herein, the term “potted rate” or “potting rate” refers to the percent of germinated embryos successfully transferred to soil from total treated haploid embryos. The “potted rate” is used as an indication of plant health in monitoring the success of recovery and growth after treatment of haploids. As used herein, the term “transplant rate” refers to the survival of healthy plants after embryos were germinated and transferred to soil.
Benoxacor was applied to isolated embryos of 2 genoytypes, with 2 replicates at levels of 0, 20, 50, 100 or 200 mg/L during colchicine treatment in the doubling media. The co-treatments were incubated for durations of 24 or 48 hours. […] None of the 48-hour co-treatments performed better than the equivalent co-treatment at 24 hours (see Table 18).
Dichlormid was applied to isolated embryos from 2 genotypes, with 2 replicates at levels of 0, 20, 50, 100, 200 and 300 mg/L during colchicine treatment in the doubling media. The co-treatments were incubated for durations of 24 or 48 hours. […] The highest percent transplanted rates were 92% and 88% for co-treatments 100 mg/L and 50 mg/L both at 24 hours, respectively. None of the 48-hour co-treatments performed better than the equivalent co-treatment at 24 hours (see Table 19).

As for `COc1cc2c(c(OC)c1OC)-c1ccc(OC)c(=O)cc1[C@@H](NC(C)=O)CC2` [colchicine], the “amount of colchicine recovered after 48 hours relative to 24 hours” value in the data set with corn embryos is “double”.
Take `CC1COc2ccccc2N1C(=O)C(Cl)Cl` (stereo not shown) [Benoxacor, benoxacor]: the “Potting Rate Mean” value with isolated embryos (benoxacor 20 mg/L, 24 hours) worked out at 79%; in the data set with isolated embryos (benoxacor 50 mg/L, 24 hours), 90%; in the data set with isolated embryos (benoxacor 50 mg/L, 48 hours), 40%; in the data set on isolated embryos (benoxacor 100 mg/L, 24 hours), 79%; in the data set with isolated embryos (benoxacor 100 mg/L, 48 hours), 60%; with isolated embryos (benoxacor 200 mg/L, 48 hours) it was 74%.
Take `C=CCN(CC=C)C(=O)C(Cl)Cl` [Dichlormid, dichlormid]: the “Potting Rate Mean” value was 89% with isolated embryos (dichlormid 20 mg/L, 24 hours); 90% and 91% with isolated embryos (dichlormid 50 mg/L, 24 hours); 96% and 97% in the data set on isolated embryos (dichlormid 100 mg/L, 24 hours); 70% with isolated embryos (dichlormid 100 mg/L, 48 hours); 86% in the data set with isolated embryos (dichlormid 200 mg/L, 48 hours); 95% in the data set on isolated embryos (dichlormid 300 mg/L, 48 hours). The “Transplant Rate Mean” value with isolated embryos (dichlormid 20 mg/L, 24 hours) is 86%; in the data set on isolated embryos (dichlormid 50 mg/L, 24 hours), 88% and 89%; with isolated embryos (dichlormid 100 mg/L, 24 hours), 92%; in the data set on isolated embryos (dichlormid 100 mg/L, 48 hours) it was 70%; in the data set with isolated embryos (dichlormid 200 mg/L, 48 hours) it was 84%; with isolated embryos (dichlormid 300 mg/L, 48 hours), 93%.
